# Source: patent publication US8329861B2, “Protein KTPAF50” (Two To Biotech Ltd., priority 2007, dated 2012)
# Columns and labels:
# [1] = tested on: human peripheral white blood cells (pWBC); test: Cytokine secretion from PHA-cultured human peripheral white blood cells treated with KTPAF50 (ELISA); assay type: cell-based; settings: pWBC in PHA containing medium, treated for 3 days
# Procedure: In order to determine the potential effect of KTPAF50 on various diseases, KTPAF50 was incubated with human peripheral white blood cells (pWBC), and the amounts of a panel of cytokines were measured.
# Total human white blood cells were cultured in PHA containing medium (Biological Industries INC—catalogue number—01-201-1) (2 million cells/well in 2 ml medium). The control cells were not treated.
# At day 3 medium was harvested and subjected to ELISA analysis, using e-Bioscience kits for human IL-17 (catalogue number: 88-7176), human INF-γ (catalogue number: 88-7316) and human TNF-α (catalogue number: 88-7346. The results are summarized in FIGS. 1, 2 and 3.
# [2] = tested on: U937 acute myeloid leukemia cells; test: Viable cell detection with Resazurin, U937 cells; assay type: cell-based; settings: incubated one day, FIG. 4
# Procedure: (§1) U937 acute myeloid leukemia cells and PC3 prostate cancer cells were each grown in 10% FCS+RPMI medium and quadruplicates were inoculated into a 96 well plate, 20,000 cells/well.
# (§2) KTPAF50 was incubated with the cells for one day, and viable cells were detected using Resazurin (R&D System) and a spectrophotometer.
# In order to determine whether the entire KTPAF50 peptide is required for activity, the experiment described in Example III above, using U937 cells, was repeated with the complete KTPAF50 peptide and fragments thereof.
# [3] = tested on: PC3 prostate cancer cells; test: Viable cell detection with Resazurin, PC3 cells; assay type: cell-based; settings: incubated one day, FIG. 4
# Procedure: as §1, §2
# U937 cells = test: U937 tumor growth in athymic nude mice; assay type: in vivo; settings: nude mice inoculated s.c. with 15×10^6 U937 cells, 25 ug/mouse injected from day 9, versus saline control; FIG. 6
# Procedure: 14 athymic nude female 8-9 week-old mice were purchased from Harlan Biotech, Israel. The mice were inoculated s.c. with 15×10^6 U937 cells. Tumors began to grow, and at day 9 the mice were divided into 2 groups: • A control group which was injected with saline. • A treated group which was injected with KTPAF50 (25 ug/mouse)
# At day 20, 4 mice from the control group were sacrificed due to ethical reasons because they had huge tumors.
substance,measurement,setting,value
"KTPAF50: KTPAF50 peptide devoid of the signal sequence, 50 amino acids: LRRREQAERGSRRCAIAGEERAMLSPSPLPETPFSPEKGAAFSPIYPRRK; chemically synthesized by Anaspec (listed as Homo sapiens)",secretion of IL-17,[1]; FIG. 1,stimulated the pWBC to secrete all three cytokines measured
same,secretion of INF-γ,[1]; FIG. 2,stimulated the pWBC to secrete all three cytokines measured
same,secretion of TNF-α,[1]; FIG. 3,stimulated the pWBC to secrete all three cytokines measured
same,viable cells (normalized to the control amount),[2],significant decrease in viable cells
same,viable cells (normalized to the control amount),[3],significant decrease in viable cells
same,U937 tumor volume / tumor growth,U937 cells,totally prevented tumor growth
